In patent publication US20230011652A1, “COMPOUNDS AND COMPOSITIONS FOR TREATING CONDITIONS ASSOCIATED WITH NLRP ACTIVITY” (Novartis AG, priority 2018, published 2023):
pIC50: −log10 of the molar value.

tested on: IL-1β production in PMA-differentiated THP-1 cells; assay: IL-1β production in PMA-differentiated THP-1 cells stimulated with gramicidin (hTHP-1 assay, 2% fetal bovine serum); type: cell-based; settings: Homo sapiens, Table 2, hTHP-1 assay containing 2% fetal bovine serum, average, read-out: hTHP-1 IC50 (Average IC50 of compounds in hTHP-1 assay)
Method: Procedure 1: IL-1β production in PMA-differentiated THP-1 cells stimulated with Gramicidin.
THP-1 cells were purchased from the American Type Culture Collection and sub-cultured according to instructions from the supplier. Prior to experiments, cells were cultured in complete RPMI 1640 (containing 10% heat inactivated FBS, penicillin (100 units/ml) and streptomycin (100 μg/ml)), and maintained in log phase prior to experimental setup. Prior to the experiment THP-1 were treated with PMA (Phorbol 12-myristate 13-acetate) (20 ng/ml) for 16-18 hours. Compounds were dissolved in dimethyl sulfoxide (DMSO) to generate a 30 mM stock. On the day of the experiment the media was removed and adherent cells were detached with trypsin for 5 minutes. Cells were then harvested, washed with complete RPMI 1640, spun down, resuspended in RPMI 1640 (containing 2% heat inactivated FBS, penicillin (100 units/ml) and streptomycin (100 μg/ml). The cells were plated in a 384-well plate at a density of 50,000 cells/well (final assay volume 50 μl). Compounds were first dissolved in assay medium to obtain a 5× top concentration of 500 μM. 10 step dilutions (1:3) were then undertaken in assay medium containing 1.67% DMSO. 5× compound solutions were added to the culture medium to achieve desired final concentration (e.g. 100, 33, 11, 3.7, 1.2, 0.41, 0.14, 0.046, 0.015, 0.0051, 0.0017 μM). Final DMSO concentration was at 0.37%. Cells were incubated with compounds for 1 hour and then stimulated with gramicidin (5 μM) (Enzo) for 2 hours. Plates were then centrifuged at 340 g for 5 min. Cell free supernatant (40 μL) was collected using a 96-channel PlateMaster (Gilson) and the production of IL-1β was evaluated by HTRF (cisbio). A vehicle only control and a dose titration of CRID3 (100-0.0017 μM) were run concurrently with each experiment. Data was normalized to vehicle-treated samples (equivalent to 0% inhibition) and CRID3 at 100 μM (equivalent to 100% inhibition).
(§1) 1.1 Cell Culture • 1) Culture THP-1 cells in the complete RPMI-1640 medium with 10% FBS at 37° C., 5% CO2. • 2) Passage the cells every 3 days by inoculating 3×10^5 cells per ml.
(§2) 1.2 Compound Preparation • Prepare the 3-fold serial dilution of the compounds with DMSO in a 384-well LDV Microplate using TECAN EVO system to generate the compound source plate with 10 concentrations. Top concentration is 30 mM.
(§3) 1.3 Cell Preparation • 1) Centrifuge THP-1 cells at 350 g for 5 min. • 2) Re-suspend cells with complete RMPI-1640 medium, and count cells. • 3) Seed cells in T225 flask, about 2.5×10^7 per flask, treat cells with 20 ng/ml PMA (final DMSO concentration<1%). • 4) Incubate overnight.
1.4 THP-1 Stimulation • 1) Wash adherent THP-1 cells with PBS, and detach cells with 4 ml trypsin for T225 flask. • 2) Centrifuge cells at 350 g for 5 min, re-suspend cells with RPMI-1640 containing 2% FBS and count cells with trypan blue. • 3) Transfer 50 nl/well the serial dilution of test compound to 384-well plate by Echo; For the high control and first point of CRID3 (MCC950), transfer 165 nl, then backfill to make the DMSO concentration is consistent in all wells, the plate layout is as below. • 4) Seed 50k cells in 40 ul RPMI-1640 with 2% FBS per well in 384-well plate. • 5) Incubate for 1 h at 37′C, 5% CO2. • 6) Prepare 5× gramicidin, add 10 μl per well, the final concentration is 5 μM, incubate for 2 hrs at 37° C., 5% CO2. • 7) Centrifuge at 350 g for 1 min. • 8) Pipet 16 μl supernatant by apricot, and transfer into white 384 proxiplate. FIG. 3 depicts the layout of the plates: HC: 100 μM CRID3 (MCC950)+5 μM gramicidin LC: 5 μM Gramicidin.
1.5 IL-1β detection • 1) Homogenize the 5× diluent #5 with a vortex and add 1 volume of stock solution in 4 volumes of distilled water. • 2) Thaw 20× stock solution of anti-IL1β-Cryptate-antibody and anti-IL1β XL-antibody. […]

Q: How did the pIC50 turn out when `O=C(Nc1c2c(cc3c1CC3)CCC2)NS(=O)(=O)c1cnn2c1OCCC2` [Compound 8, N-((2,4,5,6-tetrahydro-1H-cyclobuta[f]inden-3-yl)carbamoyl)-6,7-dihydro-5H-pyrazolo[5,1-b][1,3]oxazine-3-sulfonamide] was run?
A: Its pIC50 is 6.00 to 6.70.

Q: With `O=C(Nc1c2c(cc3c1CC3)CC2)NS(=O)(=O)c1cnn2c1OCCC2` [Compound 9, N-(tricyclo[6.2.0.03,6]deca-1,3(6),7-trien-2-ylcarbamoyl)-6,7-dihydro-5H-pyrazolo[5,1-b][1,3]oxazine-3-sulfonamide] as the compound, how does the pIC50 read?
A: The pIC50 was 6.70 to 7.40.

Q: `O=C(Nc1cc2c(c3c1CCC3)CCC2)NS(=O)(=O)c1cnn2c1OCCC2` [Compound 10, N-((1,2,3,6,7,8-hexahydro-as-indacen-4-yl)carbamoyl)-6,7-dihydro-5H-pyrazolo[5,1-b][1,3]oxazine-3-sulfonamide] was tested. Which pIC50 did it give?
A: Its pIC50 is 5.30 to 6.00.

Q: How did the pIC50 turn out when `O=C(Nc1c2c(nc3c1CCC3)CCC2)NS(=O)(=O)c1cnn2c1OCCC2` [Compound 12, Sodium ((6,7-dihydro-5H-pyrazolo[5,1-b][1,3]oxazin-3-yl)sulfonyl)((1,2,3,5,6,7-hexahydrodicyclopenta[b,e]pyridin-8-yl)carbamoyl)amide] was run?
A: The pIC50 was 6.00 to 6.70.

Q: `CC1CCc2c1nc1c(c2NC(=O)NS(=O)(=O)c2cnn3c2OCCC3)CCC1` (stereo not drawn) [Compound 13, Sodium ((6,7-dihydro-5H-pyrazolo[5,1-b][1,3]oxazin-3-yl)sulfonyl)((3-methyl-1,2,3,5,6,7-hexahydrodicyclopenta[b,e]pyridin-8-yl)carbamoyl)amide] was tested. Which pIC50 did it give?
A: The pIC50 was 6.00 to 6.70.

Q: How did the pIC50 turn out when `CC1(C)CCc2c1nc1c(c2NC(=O)NS(=O)(=O)c2cnn3c2OCCC3)CCC1` [Compound 14] was run?
A: The pIC50 was 5.30 to 6.00.

Q: How did the pIC50 turn out when `O=C(Nc1c2c(nc3c1CCC31CC1)CCC2)NS(=O)(=O)c1cnn2c1OCCC2` [Compound 15, Sodium ((6,7-dihydro-5H-pyrazolo[5,1-b][1,3]oxazin-3-yl)sulfonyl)((1′,5′,6′,7′-tetrahydro-2′H-spiro[cyclopropane-1,3′-dicyclopenta[b,e]pyridin]-8′-yl)carbamoyl)amide] was run?
A: Its pIC50 is 5.30 to 6.00.

Q: How did the pIC50 turn out when `Cc1c(C2CC2)nc2c(c1NC(=O)NS(=O)(=O)c1cnn3c1OCCC3)CCC2` [Compound 16, Sodium ((2-cyclopropyl-3-methyl-6,7-dihydro-5H-cyclopenta[b]pyridin-4-yl)carbamoyl)((6,7-dihydro-5H-pyrazolo[5,1-b][1,3]oxazin-3-yl)sulfonyl)amide] was run?
A: Its pIC50 is 5.30 to 6.00.

Q: How did the pIC50 turn out when `CN[C@H]1COc2c(S(=O)(=O)NC(=O)Nc3c4c(cc5c3CC5)CCC4)cnn2C1` [Compound 401, (R)-6-(methylamino)-N-((2,4,5,6-tetrahydro-1H-cyclobuta[f]inden-3-yl)carbamoyl)-6,7-dihydro-5H-pyrazolo[5,1-b][1,3]oxazine-3-sulfonamide] was run?
A: Its pIC50 is > 8.10.

Q: How did the pIC50 turn out when `O=C(Nc1c2c(cc3c1CC3)CCC2)NS(=O)(=O)c1cnn2c1OC[C@H](O)C2` [Compound 402, (R)-6-hydroxy-N-((2,4,5,6-tetrahydro-1H-cyclobuta[f]inden-3-yl)carbamoyl)-6,7-dihydro-5H-pyrazolo[5,1-b][1,3]oxazine-3-sulfonamide] was run?
A: Its pIC50 is 6.70 to 7.40.

Q: `O=C(Nc1c2c(cc3c1CCC3)CCC2)NS(=O)(=O)c1cnn2c1OC[C@H](OC(=O)Nc1c3c(cc4c1CCC4)CCC3)C2` [Compound 403, (R)-3-(N-((1,2,3,5,6,7-hexahydro-s-indacen-4-yl)carbamoyl)sulfamoyl)-6,7-dihydro-5H-pyrazolo[5,1-b][1,3]oxazin-6-yl (1,2,3,5,6,7-hexahydro-s-indacen-4-yl)carbamate] was tested. Which pIC50 did it give?
A: The pIC50 was 4.52 to 5.30.

Q: `C[C@@H]1CCc2c1nc1c(c2NC(=O)NS(=O)(=O)c2cnn3c2OCCC3)CCC1` [Compound 404] was tested. Which pIC50 did it give?
A: The pIC50 was 6.00 to 6.70.

same assay, conditions: Homo sapiens, Table 3, hTHP-1 assay containing 2% fetal bovine serum, average, read-out: hTHP-1 IC50 (Average IC50 of compounds in hTHP-1 assay)

Q: How did the pIC50 turn out when `CC(C)(O)c1coc(S(=O)(=O)NC(=O)Nc2c3c(cc4c2CC4)CCC3)c1` [Compound 301, 4-(2-Hydroxypropan-2-yl)-N-((2,4,5,6-tetrahydro-1H-cyclobuta[f]inden-3-yl)carbamoyl)furan-2-sulfonamide] was run?
A: Its pIC50 is 6.70 to 7.40.

Q: `CC(C)n1ccc(S(=O)(=O)NC(=O)Nc2c3c(cc4c2CC4)CCC3)n1` [Compound 302, 1-Isopropyl-N-((2,4,5,6-tetrahydro-1H-cyclobuta[f]inden-3-yl)carbamoyl)-1H-pyrazole-3-sulfonamide] was tested. Which pIC50 did it give?
A: Its pIC50 is 5.30 to 6.00.

tested on: IL-1β production in PMA-differentiated THP-1 cells; assay: hTHP-1 assay containing 10% fetal bovine serum (IL-1β production, gramicidin stimulation); type: cell-based; settings: Homo sapiens, Table 4, average, read-out: hTHP-1 IC50 in 10% FBS (Average IC50 of compounds in hTHP-1 assay)
Method: as §1, §2, §3
FIG. 3 depicts the layout of the plates: HC: 100 μM CRID3 (MCC950)+5 μM gramicidin LC: 5 μM Gramicidin.
1.5 IL-1β detection • 1) Homogenize the 5× diluent #5 with a vortex and add 1 volume of stock solution in 4 volumes of distilled water. • 2) Thaw 20× stock solution of anti-IL1β-Cryptate-antibody and anti-IL1β XL-antibody. Dilute these two antibodies to 1× with detection buffer #3. • 3) Pre-mix the two ready-to-use antibody solutions just prior to use. • 4) Dispense 4 ul of pre-mixed Anti-IL1β antibodies working solution into all wells. • 5) Seal the plate and incubate overnight at 4° C. • 6) Read the cell plate using EnVison and plot Readout vs. the test compound concentration to calculate the IC50.
• 1. IC50 of compounds can be calculated using the following formulas
% inhibition=100−100×[HCave−Readout/(HCave−LCave)] Formula for IC50 • 2. Fit the normalized data in a dose-response manner using XLfit, and calculate the compound concentration.

Q: `CCn1cc(F)c(S(=O)(=O)NC(=O)Nc2c3c(cc4c2CCC4)CCC3)n1` [Example 16, 1-Ethyl-4-fluoro-N-((1,2,3,5,6,7-hexahydro-s-indacen-4-yl)carbamoyl)-1H-pyrazole-3-sulfonamide] was tested. Which pIC50 did it give?
A: The pIC50 was 6.00 to 6.70.

Q: `CCn1ccc(S(=O)(=O)NC(=O)Nc2c3c(cc4c2CCC4)CCC3)n1` [Example 17, 1-Ethyl-N-((1,2,3,5,6,7-hexahydro-s-indacen-4-yl)carbamoyl)-1H-pyrazole-3-sulfonamide] was tested. Which pIC50 did it give?
A: The pIC50 was 5.30 to 6.00.

Q: `CCn1cc(F)c(S(=O)(=O)NC(=O)Nc2c3c(cc4c2CC4)CCC3)n1` [Example 18, 1-Ethyl-4-fluoro-N-((2,4,5,6-tetrahydro-1H-cyclobuta[f]inden-3-yl)carbamoyl)-1H-pyrazole-3-sulfonamide] was tested. Which pIC50 did it give?
A: Its pIC50 is 6.00 to 6.70.

Q: How did the pIC50 turn out when `CCn1ccc(S(=O)(=O)NC(=O)Nc2c3c(cc4c2CC4)CCC3)n1` [Example 19, 1-Ethyl-N-((2,4,5,6-tetrahydro-1H-cyclobuta[f]inden-3-yl)carbamoyl)-1H-pyrazole-3-sulfonamide] was run?
A: The pIC50 was 6.00 to 6.70.
